{
  "source": "patent US5173486A",
  "about": "“Dibenz[b,f][1,4]oxazepin-11(10H)-ones for multidrug resistance reversing agents” (Bristol-Myers Squibb Company, priority 1991, dated 1992)",
  "assay_type_in_all_cases": "cell-based",
  "key": {"[1]": {"tested_on": "HCT-116/VM46 cells", "experiment": "Cytotoxic assay, MDR reversing effects of chemosensitizers with actinomycin D in human colon carcinoma HCT-116 resistant cells", "conditions": "for Fold Resistance: ActD; for ActD IC50: 48 hours", "experimental": "(§1) Cell Culture: HCT116/VM46 cells were selected from human colon carcinoma HCT116 cell line for resistance to VM26 and MCF-7/ADR cells were selected from human breast carcinoma MCF-7 cell line for resistance to Adriamycin. […] The cell lines were grown in tissue culture flasks containing McCoy's A medium and 10% fetal bovine serum. Cells were maintained at 37° C. in a humidified atmosphere containing 5% CO2 and subcultured every 5 days.\n(§2) Cytotoxic Assay: The cells were seeded in 96 well microtiter plates at 5×10^3 cells per well and allowed to grow for 24 hours at 37° C. Cells were then incubated with decreasing amounts of antitumor agents: Adriamycin (100 μM, maximal concentration) or actinomycin D (17.6 ng/ml), for MCF-7 and HCT-116 cells, respectively. Chemosensitizers were added at variable concentrations ranging from 0.08 μM to 40 μM. In parallel, verapamil was used as positive control at the same concentrations. After 48 hours of incubation, the cells were washed, fixed and stained with crystal violet. Absorbance was read by Molecular Devices' microtiter plate reader at the wavelength of 595nm. The IC50 value (50% inhibition of cell growth) was determined from relative survival rates resulted from two to three independent experiments. The term \"fold resistance\" was defined as the ratio of the IC50 for antitumor drug in the presence or absence of chemosensitizer in resistant cells divided by the IC50 for antitumor drug in its sensitive counterpart. This value provides an estimate of the apparent potency of each reversing agent in enhancing drug effect."}, "[2]": {"tested_on": "MCF-7/ADR cells", "experiment": "Cytotoxic assay, MDR reversing effects of chemosensitizers with Adriamycin in human breast carcinoma MCF-7 resistant cells", "conditions": "for Fold Resistance: ADR; for IC50: read-out: ADR IC50", "experimental": "as §1, §2"}, "[3]": {"tested_on": "HCT116 cells", "experiment": "Cytotoxic assay, actinomycin D in sensitive human colon carcinoma HCT116 cells", "conditions": "no chemosensitizer", "experimental": "as §1\nas §2, with “The term \"fold resistance\" was defined as the ratio of the IC50 for antitumor drug in the presence or absence of chemosensitizer in resistant cells divided by the IC50 for antitumor drug in its sensitive counterpart. This value provides an estimate of the apparent potency of each reversing agent in enhancing drug effect.” left out"}, "[4]": {"tested_on": "MCF-7 cells", "experiment": "Cytotoxic assay, Adriamycin in sensitive human breast carcinoma MCF-7 cells", "conditions": "MCF-7 (sensitive); ADR; no chemosensitizer; 2880 min", "experimental": "as §1\nas §2, with “The term \"fold resistance\" was defined as the ratio of the IC50 for antitumor drug in the presence or absence of chemosensitizer in resistant cells divided by the IC50 for antitumor drug in its sensitive counterpart. This value provides an estimate of the apparent potency of each reversing agent in enhancing drug effect.” left out"}, "[5]": {"conditions": "chemosensitizer 0.4 μM, IC50 ratio to sensitive HCT116"}},
  "note": "Where “and” joins values, the source holds several entries; their conditions need not be identical. Equal entries are not always repeated. Where two headings read alike, the source gives them in different places. *1 amine or outer side, *2 acyl side, *3 side chain or, on linkers, in order; H or OH if unused. Where a SMILES comes first, the peptide text is derived from it. Bridges are numbered along the chain shown (N, C = ends). Roman numbers before positions name the chains, in order. [ ]: non-standard residue; d: D form. Actinocin(9to1) = Cc1c2oc3c(C)ccc(C(=O)[*:1])c3nc-2c(C(=O)[*:2])c(N)c1=O; NMeV = CN[C@H](C(=O)O)C(C)C; Sar = CNCC(=O)O",
  "data": [
    {"smiles": "C=C(CC)C(=O)c1ccc(OCC(=O)Nc2cc3c(cc2Cl)C(=O)N(CCN(CC)CC)c2ccc(C(F)(F)F)cc2O3)c(Cl)c1Cl", "note": "[Io]", "values": [
      {"measurement": "Fold Resistance", "setting": "[1]; [5]", "value": 3.6},
      {"measurement": "ActD IC50", "setting": "[1]; chemosensitizer 0.4 μM", "value": 1.8, "unit": "ng/mL"}
    ]},
    {"smiles": "CCN(CC)CCN1C(=O)c2cc(Cl)c(NC(=O)C(C)C)cc2Oc2cc(C(F)(F)F)ccc21", "note": "[Ii, N-[2-Chloro-10,11-dihydro-10-[2-(diethylamino)ethyl-11-oxo-7-(trifluoromethyl)dibenz[b.f]1,4]oxezpin-3-yl]-2-methylpropionamide]", "values": [
      {"measurement": "Fold Resistance", "setting": "[1]; [5]", "value": 3.4},
      {"measurement": "ActD IC50", "setting": "[1]; chemosensitizer 0.4 μM", "value": 1.7, "unit": "ng/mL"},
      {"measurement": "Fold Resistance", "setting": "[2]; chemosensitizer 0.67 μM, IC50 ratio to sensitive MCF-7", "value": 28.9},
      {"measurement": "IC50", "setting": "[2]; chemosensitizer 0.67 μM, 48 hours", "value": 10.4, "unit": "µM"}
    ]},
    {"smiles": "Cc1c2oc3c(C)ccc(C(=O)N[C@@H]4C(=O)N[C@H](C(C)C)C(=O)N5CCC[C@H]5C(=O)N(C)CC(=O)N(C)[C@@H](C(C)C)C(=O)O[C@@H]4C)c3nc-2c(C(=O)N[C@@H]2C(=O)N[C@H](C(C)C)C(=O)N3CCC[C@H]3C(=O)N(C)CC(=O)N(C)[C@@H](C(C)C)C(=O)O[C@@H]2C)c(N)c1=O", "note": "[ActD, reference compound] (I: T[dV]P[Sar][NMeV] / II: T[dV]P[Sar][NMeV]; ester I:1-I:C, II:1-II:C; linker I:N-II:N via Actinocin(9to1))", "values": [
      {"measurement": "Fold Resistance", "setting": "[3]; ActD, 2880 min", "value": 1.0},
      {"measurement": "ActD IC50", "setting": "[3]; 48 hours", "value": 0.5, "unit": "ng/mL"},
      {"measurement": "Fold Resistance", "setting": "[1]; no chemosensitizer, IC50 ratio to sensitive HCT116, 2880 min, 2880 min", "value": "15.6 and 20.0"}
    ]},
    {"smiles": "CCN(CC)CCN1C(=O)c2cc(Cl)c(NC(=O)C3CCCC3)cc2Oc2cc(C(F)(F)F)ccc21", "note": "[Ip]", "values": [
      {"measurement": "Fold Resistance", "setting": "[1]; chemosensitizer 0.24 μM, IC50 ratio to sensitive HCT116", "value": 3.4},
      {"measurement": "ActD IC50", "setting": "[1]; chemosensitizer 0.24 μM", "value": 1.7, "unit": "ng/mL"}
    ]},
    {"smiles": "COc1cccc2c1C(=O)c1c(O)c3c(c(O)c1C2=O)C[C@@](O)(C(=O)CO)C[C@@H]3O[C@H]1C[C@H](N)[C@H](O)[C@H](C)O1", "note": "[ADR, reference compound]", "values": [
      {"measurement": "Fold Resistance", "setting": "[4]", "value": 1},
      {"measurement": "Fold Resistance", "setting": "[2]; no chemosensitizer, IC50 ratio to sensitive MCF-7, 2880 min", "value": 138.9},
      {"measurement": "IC50", "setting": "[2]; Homo sapiens, 48 h", "value": 50, "unit": "µM"}
    ]}
  ]
}
